Assay results taken from patent US6720324B2, “Selective melanin concentrating hormone-1 (MCH1) receptor antagonists and uses thereof” (Synaptic Pharmaceutical Corporation, priority 2000, dated 2004).
Counter-ions that a name gives are not always drawn. Like-named read-outs stand apart in the source and are kept apart here.

Key:
human MCH1 receptor = human MCH1 receptor (Homo sapiens, UniProt Q99705); assay: Functional assay: intracellular calcium mobilization (antagonist potency Kb); type: cell-based; design: expressed in transfected cells; host or cells: COS-7 cells, transient, DEAE-dextran, plasmid pEXJ.HR-TL231 (ATCC 203197)
Description: Intracellular calcium mobilization assays for the MCH1 receptor were carried out using plasmid pEXJ.HR-TL231 (ATCC Accession No. 203197). COS-7 cells were transiently transfected with DNA encoding the MCH1 receptor utilizing the DEAE-dextran method as described above. The intracellular free calcium concentration was measured by fluorescent imaging using the calcium sensitive fluorscent dye Fluo-3. COS-7 cells expressing the human MCH1 receptor were seeded onto sterile 96 well plates, washed with Hank's balanced salt solution (HBSS), containing 20 mM HEPES, 2.5 mM probenecid, and 0.1% BSA, and loaded with the same buffer containing 3.8 μM Fluo-3 for 1 hour at 37° C. After washing with HBSS to remove the fluo-3 solution, cells were equilibrated for 10 minutes.

[1] = Table 1, cloned human MCH1 receptor, functional assay, read-out: Kb (nM) hMCH1
[2] = Table 2, antagonist potency at the human MCH1 receptor, read-out: hMCH1 Kb
[3] = Table 3, antagonist potency at the human MCH1 receptor, read-out: hMCH1 Kb
[4] = read-out: hMCH1 Kb, Table 3, antagonist potency at the human MCH1 receptor

Chain of human MCH1 receptor (Q99705 whole entry): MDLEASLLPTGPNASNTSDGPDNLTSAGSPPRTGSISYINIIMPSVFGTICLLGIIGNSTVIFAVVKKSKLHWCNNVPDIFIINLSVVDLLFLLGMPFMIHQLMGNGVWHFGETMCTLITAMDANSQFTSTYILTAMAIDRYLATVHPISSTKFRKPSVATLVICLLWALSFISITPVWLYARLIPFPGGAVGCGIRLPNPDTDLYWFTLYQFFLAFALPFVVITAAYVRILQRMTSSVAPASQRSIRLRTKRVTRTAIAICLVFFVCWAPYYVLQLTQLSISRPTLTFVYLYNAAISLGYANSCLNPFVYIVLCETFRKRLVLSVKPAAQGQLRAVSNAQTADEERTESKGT

| melting point [°C] | Kb (human MCH1 receptor; [1]) [nM] | Compound | further results |
| --- | --- | --- | --- |
| 243 to 244 | – | O=C(CCCN1CCC(NC(=O)c2ccccc2)CC1)c1ccc(Cl)cc1 (as salt: HCl) [Example 28, 1-[3-(4-CHLOROBENZOYL)]PROPYL-4-BENZAMIDOPIPERIDINE] | – |
| 66 to 71 | – | COC(=O)C1=C(C)NC(=O)N(C(=O)NCCCN2CCN(c3ccccc3C)CC2)C1c1ccc(F)c(F)c1 (stereo not drawn) (as salt: hydrochloride) [Example 35, 1,2,3,6-TETRAHYDRO-1{N-[4-(2′-METHYL-PHENYL)PIPERAZIN-1-YL]-PROPYL}-CARBOXAMIDO-4-METHYL-6-(3,4-DIFLUOROPHENYL)-2-OXO-PYRIMIDINE] | – |
| 180 to 182 | – | COC(=O)C1=C(C)NC(=O)N(C(=O)NCCCN2CCC3(CC2)OCc2ccccc23)C1c1ccc2nonc2c1 (single isomer, unassigned) (as salt: hydrochloride) [Example 18] | – |
| 150 to 153 | – | COC(=O)C1=C(C)NC(=O)N(C(=O)NCCCN2CCN(c3ccccc3[N+](=O)[O-])C[C@@H]2C)C1c1ccc(F)c(F)c1 (single isomer, unassigned; (+)) (as salt: HCl) [Example 34] | – |
| – | 182 | COC(=O)C1=C(C)NC(=O)N(C(=O)NCCCN2CCN(c3ccccc3[N+](=O)[O-])C[C@@H]2C)C1c1ccc(F)c(F)c1 (single isomer, unassigned; (+)) [Example 34] | – |
| – | 260 | Fc1ccc(C(c2ccc(F)cc2)N2CCN(C/C=C/c3ccccc3)CC2)cc1 [Example 26, 1-[BIS(4-FLUOROPHENYL)METHYL]-4-(3-PHENYL-2-PROPENYL)PIPERAZINE] | Kb (human MCH1 receptor; [2]): 260 nM |
| – | 279 | Cc1cc(O)cc(O)c1/C=N/c1ccc(-c2cn3ccccc3n2)cc1 [Example 27] | Kb (human MCH1 receptor; [2]): 279 nM |
| – | 479 | CN1CN(c2ccccc2)C2(CCN(CCCC(=O)c3ccc(F)cc3)CC2)C1=O [Example 30, N-METHYL-8-[4-(4-FLUOROPHENYL)-4-OXOBUTYL]-1-PHENYL-1,3,8-TRI-AZASPIRO-[4.5]DECAN-4-ONE] | Kb (human MCH1 receptor; [2]): 479 nM |
| – | 7 | O=[N+]([O-])c1ccccc1S(=O)(=O)n1nnc2ccccc21 [Example 31, 1H-1,2,3-BENZOTRIAZOL-1-YL (2-NITROPHENYL) SULFONE] | – |
| – | 276 | COC(=O)C1=C(C)NC(=O)N(C(=O)NCCCN2CCN(c3ccccc3C)CC2)C1c1ccc(F)c(F)c1 (stereo not drawn) [Example 35, 1,2,3,6-TETRAHYDRO-1{N-[4-(2′-METHYL-PHENYL)PIPERAZIN-1-YL]-PROPYL}-CARBOXAMIDO-4-METHYL-6-(3,4-DIFLUOROPHENYL)-2-OXO-PYRIMIDINE] | – |

The next lines start with the compound.

| Compound | melting point [°C] | Kb (human MCH1 receptor; [1]) [nM] | further results |
| --- | --- | --- | --- |
| COCC1=C(C(=O)OC)C(c2ccc(F)c(F)c2)N(C(=O)NCCCN2CCC(OC(C)=O)(c3ccccc3)CC2)C(=O)N1 (stereo not drawn) (as salt: hydrochloride) [Example 3, (1)-1,2,3,6-TETRAHYDRO-1-{N-[3-(4-O-ACETYL)-4-PHENYLPIPERIDIN-1-YL]PROPYL}CARBOXAMIDO-5-METHOXYCARBONYL-4-METHOXYMETHYL-6-(3,4-DIFLUOROPHENYL)-2-OXOPYRIMIDINE] | 82 to 84 | – | – |
| COC(=O)C1=C(C)NC(=O)N(C(=O)NCCCN2CCC3(CC2)OCc2ccccc23)C1c1ccc(F)c(F)c1 (stereo not drawn) (as salt: hydrochloride) [Example 20, 4-(3,4-DIFLUORPHENYL)-6-METHYL-2-OXO-3-{[3-(4-SPIRO[ISOBENZO-FURAN-1(3H),4′-PIPERIDINE]PROPYL}-1,2,3,4-TETRAHYDROPYRIMIDINE-5-CARBOXYLIC ACID METHYL ESTER] | 178 to 182 | – | – |
| COC(=O)C1=C(C)NC(=O)N(C(=O)NCCCN2CCC3(CCc4ccccc43)CC2)C1c1ccc2nonc2c1 (racemic) [Example 21] | – | 28 | – |
| COCC1=C(C(=O)OC)C(c2ccc(F)c(F)c2)N(C(=O)NCCCN2CCC(c3cccc4ccccc34)CC2)C(=O)N1 (single isomer, unassigned; (+)) [Example 14, (+)-1,2,3,6-TETRAHYDRO-1-{N-[4-(1-NAPHTHYL)-PIPERIDIN-1-YL]PROP-YL}CARBOXAMIDO-4-METHOXYMETHYL-6-(3,4-DIFLUOROPHENYL)-2-OXO-PYRIMIDINE-5-CARBOXYLIC ACID METHYL ESTER] | 168 to 172 | – | – |
| COCC1=C(C(=O)OC)C(c2ccc(F)c(F)c2)N(C(=O)NCCCN2CCC(O)(c3ncccc3C)CC2)C(=O)N1 (single isomer, unassigned; (+)) [Example 16] | 132 to 135 | – | – |
| COCC1=C(C(=O)OC)C(c2ccc(F)c(F)c2)N(C(=O)NCCCN2CC=C(c3cccc(NC(C)=O)c3)CC2)C(=O)N1 (stereo not drawn) [Example 2, METHYL 3-[(3-4-[3-(ACETYLAMINO)PHENYL]-1,2,3,6-TETRAHYDRO-1-PYR-IDINYLPROPYL)AMINO]CARBONYL-4-(3,4-DIFLUOROPHENYL)-6-(METHOXY-METHYL)-2-OXO-1,2,3,4-TETRAHYDRO-5-PYRIMIDINECARBOXYLATE] | – | 18 | Kb (human MCH1 receptor; [2]): 18 nM; Kb (human MCH1 receptor; [3]): 18 nM |
| COCC1=C(C(=O)OC)C(c2ccc(F)c(F)c2)N(C(=O)NCCCN2CCC(OC(C)=O)(c3ccccc3)CC2)C(=O)N1 (stereo not drawn) [Example 3, (1)-1,2,3,6-TETRAHYDRO-1-{N-[3-(4-O-ACETYL)-4-PHENYLPIPERIDIN-1-YL]PROPYL}CARBOXAMIDO-5-METHOXYCARBONYL-4-METHOXYMETHYL-6-(3,4-DIFLUOROPHENYL)-2-OXOPYRIMIDINE] | – | – | Kb (human MCH1 receptor): 201 nM |
| O=C(NC1CCN(CCC2CCc3ccccc3C2=O)CC1)c1ccccc1 (stereo not drawn) [Example 5] | 158 to 159 | 258 | – |
| CCCCN(CCCC)c1ccc(CN2CCC(CNC(=O)N3C(=O)NC(C)=C(C(=O)OC)C3c3ccc4nonc4c3)CC2)cc1 (stereo not drawn) [Example 6] | – | 42 | Kb (human MCH1 receptor; [2]): 42 nM; Kb (human MCH1 receptor; [3]): 42 nM |
| COC(=O)C1=C(C)NC(=O)N(C(=O)NCCCN2CCC(c3ccccc3)CC2)C1c1ccc2nonc2c1 (stereo not drawn) [Example 8, 6-(BENZOFURAZAN-5-YL)-1,2,3,6-TETRAHYDRO-5-METHOXYCARBONYL-4-METHYL-2-OXO-1-{N-[3-(4-PHENYLPIPERIDIN-1-YL)PROPYL]}CARBOXAMIDO-PYRIMIDINE] | – | 88 | – |
| COC(=O)C1=C(C)NC(=O)N(C(=O)NCCCN2CCC(c3ccccc3)CC2)C1c1ccc(F)c(F)c1 (stereo not drawn) [Example 11, 6-(3,4-DIFLOUROPHENYL)-1,2,3,6-TETRAHYDRO-5-METHOXYCARBONYL-4-METHYL-2-OXO-1-{N-[3-(4-PHENYLPIPERIDIN-1-YL) PROPYL]}CARBOXAMIDO-PYRIMIDINE] | – | 331 | – |
| CCCCN(CCCC)c1ccc(CNC[C@H]2CC[C@H](NC(=O)c3cccc4ccccc34)CC2)cc1 [Example 13, N1-[4-([4-(DIBUTYLAMINO)BENZYL]AMINOMETHYL)CYCLOHEXYL]-1-NAPHTH-AMIDE] | – | 284 | Kb (human MCH1 receptor; [2]): 284 nM; Kb (human MCH1 receptor; [3]): 284 nM |
| COC(=O)C1=C(C)NC(=O)N(C(=O)NCCCN2CCC3(CC2)OCc2ccccc23)C1c1ccc(F)c(F)c1 (stereo not drawn) [Example 20, 4-(3,4-DIFLUORPHENYL)-6-METHYL-2-OXO-3-{[3-(4-SPIRO[ISOBENZO-FURAN-1(3H),4′-PIPERIDINE]PROPYL}-1,2,3,4-TETRAHYDROPYRIMIDINE-5-CARBOXYLIC ACID METHYL ESTER] | – | – | Kb (human MCH1 receptor): 5 nM; Kb (human MCH1 receptor; read-out: Kb (nM) hMCH1, Table 1, cloned human MCH1 receptor, functional assay): 5 nM; Kb (human MCH1 receptor; [4]): 5 nM |
| O=C(CCCN1CCC(O)(c2ccc(Cl)cc2)CC1)c1ccc(Cl)cc1 [Example 29] | – | – | Kb (human MCH1 receptor): 9 nM; Kb (human MCH1 receptor; read-out: hMCH1 Kb, Table 2, antagonist potency at the human MCH1 receptor): 9 nM; Kb (human MCH1 receptor; [4]): 9 nM |
| COC(=O)C1=C(C)NC(=O)N(C(=O)NCCCN2CCC3(CCc4ccccc43)CC2)C1c1ccc(F)c(F)c1 (stereo not drawn) [Example 32, (1)-1,2,3,6-TETRAHYDRO-1-{N-[4-(DIHYDROINDENE)-1-YL}PROPYL}-CARBOXAMIDO-5-METHOXYCARBONYL-2-OXO-6-(3,4-DIFLUORO)-4-METHYL-PYRIMIDINE] | 150 to 153 | – | Kb (human MCH1 receptor): 67 nM |
| (1)-1,2,3,6-TETRAHYDRO-1-{N-[4-(3,4-DIHYDRO-2-OXOSPIRONAPHTHALENE-1(2H))-PIPERIDINE-1-YL]PROPYL}CARBOXAMIDO-5-METHOXY-CARBONYL-2-OXO-6-(3,4-DIFLUOROPHENYL)-4-METHYL-PYRIMIDINE [Example 24] | – | 102 | – |
| (1)-1,2,3,6-TETRAHYDRO-1-{N-[4-(3,4-DIHYDRO-2-OXOSPIRONAPHTHALENE-1(2H))-PIPERIDINE-1-YL]PROPYL}CARBOXAMIDO-5-METHOXYCARBONYL-2-OXO-6-(3,4-BENZOFURAZAN)-4-METHYLPYRIMIDINE HYDROCHLORIDE [Example 23] | – | 68 | – |
